Results taken from patent US20260209152A1, “Substituted Hydroxystilbene Compounds and Derivatives, Synthesis and Uses Thereof” (Kynan Duke IP, LLC, priority 2019, published 2026).
Like-named read-outs stand apart in the source and are kept apart here.

How the values were obtained:
Pancreatic MIA PaCa-2 = experiment: CellTiter Glo cell viability assay; format: cell-based, human; settings: Homo sapiens, read-out: IC50
Procedure: (§1) 1.7*10^3 cells/well were seeded in quadruplicates in 96-well plate after plating. Drugs were added at 5 μM and 2-fold dilutions over 18 concentrations (0.000038146-5 M concentration range) to generate a dose-response curve. Cell growth was assessed on day 1, 3 and 5 after drug treatments using the CellTiter Glo Luminescence Cell Viability Assay (Promega) according to manufacturer's protocol. Thermo Scientific Varioskan LUX Multimode Microplate instrument was used for plate reading. Data are expressed as mean luminescence (arbitrary units) ±S.D.
(§2) Cell Viability Assays were employed to determine the concentration of Compound 1 (KYN-001) and analogues where the response is reduced by half. For each treatment of cancer cells, 1, 2, 5, 10 and 20 μM solutions of compounds were applied. GraphPad Prism 7 software was used to fit dose response curves. Relative Luminescence Units were plotted against the log values of the doses used and the nonlinear regression model was used for data analysis.
(§3) The protocol for cell proliferation was optimized for Compound 8 (KYN-119) to enable a more accurate assessment of its low IC50 value. In this protocol, 18 dosages (2 fold dilutions ranging from 0.000038146 to 5 μM) were applied to cells seeded in 96-well plates, and Luminescence was measured after 1, 3 and 5 days upon treatments.
Day 3 upon treatment of MIA PaCa_2 pancreatic cancer cells, 24 h after plating (11 dilutions), as assessed by CellTiter Glow Assay.

[1] = system: Cancer cells including pancreatic, bladder, kidney, colon, breast, lung, liver and osteosarcomas; experiment: CellTiter Glo cell viability assay, panel of cancer cell lines; format: cell-based, human; settings: SAR discussion based on IC50 values in Tables 1 to 5; compared with 1 [KYN-001]
Procedure: Compounds 1 to 15 were evaluated and their effect on cancer growth examined in cell viability assays on multiple cancer types (Tables 1 to 5). Cancer cells including pancreatic, bladder, kidney, colon, breast, lung, liver and osteosarcomas obtained from ATCC (American Type Culture Collection) were authenticated before use by Short Tandem Repeat genomic analysis (Reid Y, Storts D, Riss T and Minor L. Authentication of Human Cell Lines by STR DNA Profiling Analysis. 2013 May 1. In: Markossian S, Sittampalam G S, Grossman A, et al., editors. Assay Guidance Manual. Bethesda (MD): Eli Lilly & Company and the National Center for Advancing Translational Sciences; 2004.). Experimental protocol for each cancer cell line was verified and optimized according to literature reports before use (Tables 1 to 3).
as §1, §2, §3

Kidney A-498 = experiment: CellTiter Glo cell viability assay; format: cell-based, human; settings: Homo sapiens, A498, Table 5A: 11 dilutions 3-0.00001 μM; single experiments Exp E-K; read-out: IC50
Procedure: as §1, with “Drugs were added at 5 μM and 2-fold dilutions over 18 concentrations (0.000038146-5 M concentration range) to generate a dose-response curve.” left out
as §2, with “For each treatment of cancer cells, 1, 2, 5, 10 and 20 μM solutions of compounds were applied.” left out
The protocol for cell proliferation was optimized for Compound 8 (KYN-119) to enable a more accurate assessment of its low IC50 value. […]

[2] = Stability in solution (LCMS observation); format: physicochemical; settings: standing in methanol for 16 hours; acetonitrile in water chromatography
Procedure: NOTE: In a trial run, compound 15-9 (50 mg) was converted to compound 15 using conditions as described above.

Brain U-87 MG HTB-14 = experiment: CellTiter Glo cell viability assay; format: cell-based; settings: Homo sapiens, Table 5B: 11 dilutions 3-0.00001 μM, Exp L-N
Procedure: as §1, with “Drugs were added at 5 μM and 2-fold dilutions over 18 concentrations (0.000038146-5 M concentration range) to generate a dose-response curve.” left out
as §2, with “For each treatment of cancer cells, 1, 2, 5, 10 and 20 μM solutions of compounds were applied.” left out

GBM patient sample BNB18 = experiment: Ex vivo GBM 3D spheroid drug response (CellTiter-Glo 3D); format: cell-based, human; set-up: key to TMZ Response: NR: Non-responder; MR: Moderate responder; Responder; settings: 3D spheroids
Excerpt: (§4) This project involves an ex vivo drug response screen for 3 ROKiT Pharma test agents and Temozolomide in 3 previously dissociated and cryopreserved GBM samples.
(§5) • 2.1 Three previously processed GBM patient samples were chosen to be used in this study.

GBM patient sample BNA99 = experiment: as above; format: cell-based, human; set-up: key to TMZ Response: NR: Non-responder; MR: Moderate responder; Responder; settings: 3D spheroids
Excerpt: as §4, §5

GBM patient sample BNB04 = experiment: as above; format: cell-based, human; set-up: key to TMZ Response: NR: Non-responder; MR: Moderate responder; Responder; settings: 3D spheroids
Excerpt: as §4, §5

[3] = system: IL-17A secretion from human PBMC stimulated with antiCD3/antiCD28-coated beads; settings: assay description, cited from earlier work
[4] = MIA PaCa-2, Table 5B: MIA PaCa-2 CRL-1420, 11 dilutions 3-0.00001 μM, Exp L-N

SMILES	Cancer cell viability inhibition, statement in words [1]	IC50 (Pancreatic MIA PaCa-2; [4])	IC50 (Brain U-87 MG HTB-14)	also measured
CNc1cc(/C=C/c2cc(O)cc(OC)c2CC=C(C)C)ccc1O [Compound 15, (E)-3-(4-Hydroxy-3-(methylamino)styryl)-5-methoxy-4-(3-methylbut-2-en-1-yl)phenol]	inactive or weakly active			IC50 (Pancreatic MIA PaCa-2; MIA PaCa-2, Table 5A: 11 dilutions 3-0.00001 μM, single experiments Exp E-K): > 3 µM; IC50 (Kidney A-498): > 3 µM; Stability in solution [2]: might be unstable in solution
CCOc1cc(O)cc(/C=C/c2ccc(N(O)C(C)=O)c(OC)c2)c1CC=C(C)C [Compound 39, (E)-N-(4-(3-ethoxy-5-hydroxy-2-(3-methylbut-2-en-1-yl)styryl)-2-methoxyphenyl)-N-hydroxyacetamide]	almost complete loss of anticancer activity	> 3 µM	~3 µM	
COc1cc(/C=C/c2cc(O)cc(NC=O)c2CC=C(C)C)ccc1O [Compound 48, (E)-N-(5-Hydroxy-3-(4-hydroxy-3-methoxystyryl)-2-(3-methylbut-2-en-1-yl)phenyl)formamide]	anticancer activities comparable to 1	0.486 µM	0.555 µM	
COc1cc(/C=C/c2cc(O)cc(NC(C)=O)c2CC=C(C)C)ccc1O [Compound 49, (E)-N-(5-hydroxy-3-(4-hydroxy-3-methoxystyryl)-2-(3-methylbut-2-en-1-yl)phenyl)acetamide]	anticancer activities comparable to 1	0.531 µM	1.41 µM	
CCOc1cc(O)cc(/C=C/c2ccc3[nH]c(=O)n(C)c3c2)c1CC=C(C)C [Compound 51, (E)-6-(3-Ethoxy-5-hydroxy-2-(3-methylbut-2-en-1-yl)styryl)-1-methyl-1,3-dihydro-2H-benzo[d]imidazol-2-one]	no significant activity		~3 µM	
Cn1nnc2c(C(N)=O)ncn2c1=O [TMZ, Temozolomide, reference compound]				TMZ Response (GBM patient sample BNB18): R; TMZ Response (GBM patient sample BNA99): NR; TMZ Response (GBM patient sample BNB04): MR
C=CC[C@@H]1/C=C(\C)C[C@H](C)C[C@H](OC)[C@H]2O[C@@](O)(C(=O)C(=O)N3CCCC[C@H]3C(=O)O[C@H](/C(C)=C/[C@@H]3CC[C@@H](O)[C@H](OC)C3)[C@H](C)[C@@H](O)CC1=O)[C@H](C)C[C@@H]2OC [Tacrolimus]				Emax (plateau of the fitted curve), IL-17A release (reference compound) [3]: approximately 90%; EC50 ([3]; read-out: EC50, IL-17A release (reference compound)): ~0.00034 µM
